According to US12389911B2, “Benzimidazole compound or salt thereof, agricultural and horticultural insecticidal and acaricidal agent containing said compound, and method for using same” (NIHON NOHYAKU CO., LTD., priority 2019, dated 2025):

System: Two-spotted spider mite (Tetranychus urticae)
Assay: Acaricidal action on two-spotted spider mite (kidney bean leaf disk spray)
Format: in vivo
Details: 500 ppm, adult females, 25° C., two days after treatment
Experimental: Acaricidal Action on Two-Spotted Spider Mite (Tetranychus urticae)
Leaf disk having a diameter of 2 cm was prepared by leaves of kidney bean, and the leaf disk was placed on the wetted filter paper. Adult hens of two-spotted spider mite were inoculated on the wetted filter paper, and then 50 ml of an agrochemical dispersion, prepared by diluting a formulation containing the benzimidazole compound represented by the general formula (1) of the present invention or salt thereof as an active ingredient to adjust each of the concentrations to 500 ppm, was sprayed on turntable uniformly. After the spraying, it was allowed to stand in a thermostatic chamber at 25° C. Two days after the treatment of an agrochemical dispersion, the dead mites were counted, the corrected mortality rate was calculated according to the formula shown below, and the acaricidal efficacy was evaluated according to the criteria of Test Example 2. This test was conducted in duplicate using 10 adult hens of two-spotted spider per plot. Corrected mortality(%)=(Number of dead mites in a non-treatment plot−Number of dead mites in a treatment plot)/(Number of dead mites in a non-treatment plot)×100 [Expression 4]

Row | SMILES | acaricidal efficacy (corrected mortality rate), activity level
1 | CCS(=O)(=O)n1c(-n2cc(C(=O)CC(C)(C)C)c(CC(C)(C)C)n2)nc2ccccc21 [Compound 2-131] | D or higher
2 | CCS(=O)(=O)n1c(-n2cnc(C(=O)OC(C)(C)c3ccccc3)c2)nc2ccccc21 [Compound 1-36] | D or higher
3 | CCS(=O)(=O)n1c(-n2cc(C#Cc3ccccc3)c(OCC(F)(F)F)n2)nc2ccccc21 [Compound 2-100] | D or higher
4 | CCOc1nn(-c2nc3ccccc3n2S(=O)(=O)CC)cc1C(=O)OC(C)(C)C [Compound 2-73] | D or higher
5 | CCS(=O)(=O)n1c(-n2cc(C#N)c(C(=O)OC(C)(C)C)n2)nc2ccccc21 [Compound 2-108] | D or higher
6 | CCS(=O)(=O)n1c(-n2cc(SCC(F)(F)C(F)(F)F)cn2)nc2ccccc21 [Compound 2-141] | D or higher
7 | CCS(=O)(=O)n1c(-n2cc(C(C)=O)c(C)n2)nc2ccccc21 [Compound 2-119] | D or higher
8 | CCS(=O)(=O)n1c(-n2cc(C(=O)OC(C(F)(F)F)C(F)(F)F)cn2)nc2ccccc21 [Compound 2-93] | D or higher
9 | CCS(=O)(=O)n1c(-n2cc(CCc3ccccc3)c(C(=O)OC(C)(C)C)n2)nc2ccccc21 [Compound 2-107] | D or higher
10 | CCOC(=O)c1cn(-c2nc3ccccc3n2S(=O)(=O)CC)nc1/C=C/C1CC1 [Compound 2-80] | D or higher
11 | CCS(=O)(=O)n1c(-n2cnc(COc3ccc(OC(F)(F)F)cc3)c2)nc2ccccc21 [Compound 1-17] | D or higher
12 | CCS(=O)(=O)n1c(-n2cc([S+]([O-])C(C)C)c(C(F)(F)F)n2)nc2ccccc21 (stereo not drawn) [Compound 2-55] | D or higher
13 | CCS(=O)(=O)n1c(-n2cc(C(=O)OC(C)(C)C)c(C(=O)OC(C)(C)C)n2)nc2ccccc21 [Compound 2-62] | D or higher
14 | CCS(=O)(=O)n1c(-n2cc(/C=C/C(=O)OC(C)(C)C)c(C(=O)OC(C)(C)C)n2)nc2ccccc21 [Compound 2-130] | D or higher
15 | CCS(=O)(=O)n1c(-n2cc(SCc3ccc(C(C)(C)C)cc3)c(C(F)(F)F)n2)nc2ccccc21 [Compound 2-121] | D or higher
16 | CCS(=O)(=O)n1c(-n2cc(C(=O)OC(C)(C)C)c(C3CC3)n2)nc2ccccc21 [Compound 2-50] | D or higher
17 | CCS(=O)(=O)n1c(-n2cc(C(=O)NC3CC3)c(C(C)(C)C)n2)nc2ccccc21 [Compound 2-96] | D or higher
18 | CCCCCc1cn(-c2nc3ccccc3n2S(=O)(=O)CC)nc1C(F)(F)F [Compound 2-125] | D or higher
19 | CCOC(=O)c1cn(-c2nc3ccccc3n2S(=O)(=O)CC)nc1OCC(F)(F)C(F)(F)F [Compound 2-41] | D or higher
20 | C#Cc1cn(-c2nc3ccccc3n2S(=O)(=O)CC)nc1C(F)(F)F [Compound 2-110] | D or higher
21 | CCS(=O)(=O)n1c(-n2cc(/C=C/C(=O)OCc3ccc(C(C)(C)C)cc3)c(C(F)(F)F)n2)nc2ccccc21 [Compound 2-114] | D or higher
22 | CCS(=O)(=O)n1c(-n2cc(C(=O)OC(C)(C)C)c(OCC(F)F)n2)nc2ccccc21 [Compound 2-77] | D or higher
23 | CCS(=O)(=O)n1c(-n2cnc(C(F)(F)C(F)(F)F)n2)nc2ccccc21 [Compound 3-2] | D or higher
24 | CCS(=O)(=O)n1c(-n2cc(CCCOC(=O)C(C)(C)C)c(C(F)(F)F)n2)nc2ccccc21 [Compound 2-134] | D or higher
